Test system: ZEAMA Sileno
Experiment: Safener seed treatment with pre-emergence herbicide application, crop damage test in greenhouse
Assay type: in vivo, maize
Design: key to Reduction [Difference]: difference in % crop damage (visual score vs untreated control)
Conditions: for Reduction [%] / Reduction [Difference]: furilazole 0.25 g a.i./kg seed; for HER effect + SAF [%] / HER effect [%]: pre-emergence; for HER effect + SAF [%]: furilazole seed treatment 0.25 g a.i./kg seed; for HER effect [%]: % crop damage
Method: Seed Treatment; Pre-Emergence • A) Method Description
For the safener seed treatment, sufficient seeds of the respective crops (spring wheat, TRZAS; spring barley, HORVS; maize, ZEAMA) were weighed into screw top glass bottles approximately twice the volume of the seeds.
The specified safeners, formulated as wettable powder (WP) were weighed out so that the specified rates (g a·i·/kg seed) would be obtained, dissolved in water (1 ml water per 10 g of seeds), and added to the seeds to produce a slurry.
The bottles were capped and then placed in an overhead shaker (set at medium speed for ca. 60 minutes) so that the seeds were evenly coated with the slurry. The bottles were uncapped and the seeds were either placed on paper and dried for an interval of 3-4 hours prior to sowing, or directly sown. Seeds were placed in sandy loam soil in pots of a diameter of 7-8 cm, and covered with soil.
Pre-emergence application of the specified herbicides was done subsequently, on two sets of plants:
a) seed treatment with safener, as described above
The herbicides were formulated as WP and was sprayed onto the soil surface as an aqueous suspension at an equivalent water application rate of 300 1/ha.
After application, the test plants were kept in the greenhouse under good growth conditions. At intervals up to 4 weeks after application (=28 days after treatment; DAT), % crop damage observed on the treated plants was scored visually in comparison to control plants that had not received any safener or herbicide treatment.
Values in the table below are mean values of at least 2 replicates.
Plant Species, Variety: ZEAMA Sileno, Safener (SAF): Furilazole

[1] = herbicide alone 80 g a.i./ha, 14 DAT
[2] = herbicide alone 40 g a.i./ha, 14 DAT
[3] = herbicide alone 40 g a.i./ha, 26 DAT
[4] = herbicide alone 80 g a.i./ha, 26 DAT

CC1(C(=O)NC2C=CC(C(=O)O)C2)CC(c2cc(F)cc(F)c2)=NO1 (stereo not drawn) [Example 1.36]
Reduction [%] (herbicide 80 g a.i./ha, 14 DAT): 40%
Reduction [Difference] (herbicide 80 g a.i./ha, 14 DAT): 33
HER effect + SAF [%] (herbicide 80 g a.i./ha, 14 DAT): 50%
HER effect [%] [1]: 83%

C=CC1(C(=O)NC2COC(C(=O)OC)C2)CC(c2cc(F)cc(F)c2)=NO1 (stereo not drawn) [Example 1.70]
Reduction [%] (herbicide 40 g a.i./ha, 14 DAT): 44%
Reduction [Difference] (herbicide 40 g a.i./ha, 14 DAT): 35
Reduction [%] (herbicide 40 g a.i./ha, 26 DAT): 24%
Reduction [Difference] (herbicide 40 g a.i./ha, 26 DAT): 20
Reduction [%] (herbicide 80 g a.i./ha, 14 DAT): 58%
Reduction [Difference] (herbicide 80 g a.i./ha, 14 DAT): 55
Reduction [%] (herbicide 80 g a.i./ha, 26 DAT): 63%
Reduction [Difference] (herbicide 80 g a.i./ha, 26 DAT): 60
HER effect + SAF [%] (herbicide 40 g a.i./ha, 14 DAT): 45%
HER effect + SAF [%] (herbicide 40 g a.i./ha, 26 DAT): 65%
HER effect + SAF [%] (herbicide 80 g a.i./ha, 14 DAT): 40%
HER effect + SAF [%] (herbicide 80 g a.i./ha, 26 DAT): 35%
HER effect [%] [2]: 80%
HER effect [%] [3]: 85%
HER effect [%] [1]: 95%
HER effect [%] [4]: 95%

COC(=O)C1=C[C@@H](NC(=O)[C@@]2(C)CC(c3cc(F)cc(F)c3)=NO2)CC1 [Example 1.63]
Reduction [%] (herbicide 40 g a.i./ha, 14 DAT): 50%
Reduction [Difference] (herbicide 40 g a.i./ha, 14 DAT): 30
Reduction [%] (herbicide 40 g a.i./ha, 26 DAT): 100%
Reduction [Difference] (herbicide 40 g a.i./ha, 26 DAT): 25
HER effect + SAF [%] (herbicide 40 g a.i./ha, 14 DAT): 30%
HER effect + SAF [%] (herbicide 40 g a.i./ha, 26 DAT): 0%
HER effect [%] [2]: 60%
HER effect [%] [3]: 25%

C=CC1(C(=O)NC2C=C(C(=O)OC)OC2)CC(c2cc(C)cc(C)c2)=NO1 (stereo not drawn) [Example 1.90]
Reduction [%] (herbicide 80 g a.i./ha, 14 DAT): 80%
Reduction [Difference] (herbicide 80 g a.i./ha, 14 DAT): 20
Reduction [%] (herbicide 80 g a.i./ha, 26 DAT): 100%
Reduction [Difference] (herbicide 80 g a.i./ha, 26 DAT): 30
HER effect + SAF [%] (herbicide 80 g a.i./ha, 14 DAT): 5%
HER effect + SAF [%] (herbicide 80 g a.i./ha, 26 DAT): 0%
HER effect [%] [1]: 25%
HER effect [%] [4]: 30%

COCCOC(=O)C1C=CC(NC(=O)C2(C(F)(F)F)CC(c3cc(F)cc(C#N)c3)=NO2)C1 (stereo not drawn) [Example 1.2]
Reduction [%] (herbicide 40 g a.i./ha, 14 DAT): 63%
Reduction [Difference] (herbicide 40 g a.i./ha, 14 DAT): 25
Reduction [%] (herbicide 80 g a.i./ha, 14 DAT): 100%
Reduction [Difference] (herbicide 80 g a.i./ha, 14 DAT): 45
HER effect + SAF [%] (herbicide 40 g a.i./ha, 14 DAT): 15%
HER effect + SAF [%] (herbicide 80 g a.i./ha, 14 DAT): 0%
HER effect [%] [2]: 40%
HER effect [%] [1]: 45%

CSCCOC(=O)C1C=CC(NC(=O)C2(C(F)(F)F)CC(c3cc(F)cc(F)c3)=NO2)C1 (stereo not drawn) [Example 1.7]
Reduction [%] (herbicide 40 g a.i./ha, 14 DAT): 34%
Reduction [Difference] (herbicide 40 g a.i./ha, 14 DAT): 28
HER effect + SAF [%] (herbicide 40 g a.i./ha, 14 DAT): 55%
HER effect [%] [2]: 83%

Source: US20230189808A1, “SELECTIVE HERBICIDES BASED ON SUBSTITUTED ISOXAZOLIN CARBOXAMIDES AND FURILAZOLE” (Bayer Aktiengesellschaft, priority 2020, published 2023)
